{"source": "BindingDB's records for doi:10.1021/jm990235p", "about": "(Va Medical Center, 1999)", "biological_target": "aldehyde dehydrogenase (Saccharomyces cerevisiae)", "assay": "In vitro inhibitory activity against yeast Aldehyde dehydrogenase", "data": [{"smiles": "CCOC(=O)N(OC(=O)N(CC)CC)S(=O)(=O)c1ccccc1", "note": "[ethyl [(diethylamino)carbonyl]oxy(phenylsulfonyl)carbamate]", "values": [{"measurement": "IC50", "result": 169, "unit": "µM"}]}]}
